In patent US20260210856A1, “CONJUGATED OLIGOELECTROLYTES WITH BORON-DIPYRROMETHENE CORES AND METHODS THEREOF” (National University of Singapore, priority 2022, published 2026):

Tests used:
[1] = Photophysical properties in PBS and in SUVs (POPC:POPG 85:15); type: physicochemical; details: for FWHM: fluorescence spectra, intercalated within SUVs; for fluorescence intensity increase upon inserting into lipid bilayers: relative to the values measured in PBS
From the text: The photophysical properties of the COE-BY series were studied in phosphate-buffered saline (PBS) and within model lipid bilayers. Small unilamellar vesicles (SUVs) composed of 1-palmitoyl-2-oleoyl-glycero-3-phosphocholine (POPC) and 1-palmitoyl-2-oleoyl-sn-glycero-3-phospho-(1′-rac-glycerol) sodium (POPG) (85:15, mol/mol) were used to simulate the lipid environment in cell membranes. The absorption spectra in PBS for all compounds feature a main peak at ~550 nm, reflecting the presence of the BODIPY subunit (FIG. 9A). One also observes a 5-10 nm red-shift of lowest energy absorption peak with increasing electron-withdrawing strength of the phenyl substituents.
Upon inserting into lipid bilayers, the fluorescence intensity increases over 27-fold for COE-BYPhMe, 30-fold for COE-BYPhOC4, 35-fold for COE-BYPhCN and 40-fold for COE-BYPhNO, relative to the values measured in PBS (FIG. 1c and FIG. S5). The increase in emission intensity reflects a transition to a more rigid and hydrophobic environment. Quantum yields increase to 32% for COE-BYPhMe, 60% for COE-BYPhOC4, 13% for COE-BYPhCN, and 10% for COE-BYPhNO in SUVs from 1% for COE-BYPhMe, 3% for COE-BYPhOC4, and 0.5% for COE-BYPhCN in PBS. The QY of COE-BYPhNO in PBS cannot be accurately determined by using a conventional fluorometer due to its weak fluorescence. The maximum emission wavelengths are redshifted from 587/589 nm (COE-BYPhMe/OC4) to 605/611 nm (COE-BYPhCN/NO) as a result of the decreased HOMO-LUMO energy gaps. […] Furthermore, the fluorescence spectra of COE-BYs intercalated within SUVs show a narrow band at wavelengths between 587 nm and 611 nm, with a full width half maximum (FWHM) linewidth of 52-68 nm (Table 1).

[2] = commercial dyes for comparison; cited from earlier work
A549 cells = experiment: Two-photon fluorescence imaging and FLIM of stained cells; type: cell-based; details: A549, 1 μM, 24 hours
From the text: Fluorescence imaging is usually based on the analysis of fluorescence intensity, which is affected by many factors including dye concentration, laser power, the sensitivity of the detector, and sampling time. The main advantage of fluorescence lifetime imaging (FLIM) is independent of the above experimental conditions, especially the local dye concentration gradients, which makes FLIM an ideal method for studies in living cell models. […] The fluorescence lifetime of COE-BYs could be a function of viscosity after calibration. FLIM makes it possible to produce spatial viscosity maps after staining with COE-BYs. A549 cells were stained with COE-BYPhMe and COE-S6 (1 μM) for 24 hours, respectively. The cell samples were analyzed using two-photon fluorescence imaging and FLIM.

FWHM [1] [nm]	λabs ([1]; in PBS) [nm]	λem in PBS ([1]; in PBS) [nm]	ΦF in SUVs [1] [%]	λem in SUVs [1] [nm]	fluorescence intensity increase upon inserting into lipid bilayers [1] [fold]	ΦF in PBS ([1]; in PBS) [%]	SMILES	two photon absorption cross section area [2] [GM]	lifetimes in phasor plot (A549 cells)
68	556	625	10	611	> 40		CC1=C(c2ccc(/C=C/c3cc(OCCCCCC[N+](C)(C)C)c(OCCCCCC[N+](C)(C)C)c(OCCCCCC[N+](C)(C)C)c3)cc2)C(C)=[N+]2C1=C(c1ccc([N+](=O)[O-])cc1)c1c(C)c(-c3ccc(/C=C/c4cc(OCCCCCC[N+](C)(C)C)c(OCCCCCC[N+](C)(C)C)c(OCCCCCC[N+](C)(C)C)c4)cc3)c(C)n1[B-]2(F)F.[I-].[I-].[I-].[I-].[I-].[I-] [COE-BYPhNO]		
							CCN(CC)c1ccc2c(-c3ccccc3C(=O)O)c3ccc(=[N+](CC)CC)cc-3oc2c1.[Cl-] [Rhodamine B]	150	
							CCCCCCCCCCCCCCCCCCN1/C(=C/C=C/C2=[N+](CCCCCCCCCCCCCCCCCC)c3ccccc3C2(C)C)C(C)(C)c2ccccc21.[O-][Cl+3]([O-])([O-])[O-] [DiL, carbocyanine DiL]	10	
							C[N+](C)(C)CCCCCCOc1cc(/C=C/c2ccc(/C=C/c3ccc(/C=C/c4ccc(/C=C/c5ccc(/C=C/c6cc(OCCCCCC[N+](C)(C)C)c(OCCCCCC[N+](C)(C)C)c(OCCCCCC[N+](C)(C)C)c6)cc5)cc4)cc3)cc2)cc(OCCCCCC[N+](C)(C)C)c1OCCCCCC[N+](C)(C)C.[I-].[I-].[I-].[I-].[I-].[I-] [COE-S6]		only single area in the phasor plot
63	550	618	13	605	> 35	0.5	CC1=C(c2ccc(/C=C/c3cc(OCCCCCC[N+](C)(C)C)c(OCCCCCC[N+](C)(C)C)c(OCCCCCC[N+](C)(C)C)c3)cc2)C(C)=[N+]2C1=C(c1ccc(C#N)cc1)c1c(C)c(-c3ccc(/C=C/c4cc(OCCCCCC[N+](C)(C)C)c(OCCCCCC[N+](C)(C)C)c(OCCCCCC[N+](C)(C)C)c4)cc3)c(C)n1[B-]2(F)F.[I-].[I-].[I-].[I-].[I-].[I-] [COE-BYPhCN]		
